Test results from PMC3806745, “Selective Inhibition of Matrix Metalloproteinase-9 Attenuates Secondary Damage Resulting from Severe Traumatic Brain Injury” (PLoS ONE, 2013).

Assays:
[1] = Regional brain distribution of SB-3CT and p-OH SB-3CT after repeated i.p. SB-3CT; assay type: in vivo, mouse; conditions: mice
Protocol: (§1) Under anesthesia, terminal blood was collected in heparin tubes through the posterior vena cava at various time points after the last dose, and tubes were centrifuged to collect plasma. Whole brain samples were harvested after transcardiac perfusion with saline and immediately flash frozen in liquid nitrogen and stored at −80°C until analysis. […] At 10 minutes after the last dose, whole brain samples were rapidly dissected into different regions (cortex, striatum, hippocampus, cerebellum and brain stem), and immediately frozen in dry ice.
(§2) A 75-µL aliquot of plasma was mixed with 150 µL of internal standard in acetonitrile. The sample was centrifuged at 10,000×g for 10 minutes. Brain samples were weighed and homogenized for 5 minutes in one volume equivalent of cold acetonitrile, containing an internal standard, using a bullet blender (Next Advance, Inc., Averill Park, NY). For regional brain distribution, the striatum, hippocampus, cerebellum and brain stem samples were pooled from 3 different mice for analysis.
The homogenates were centrifuged twice at 20,000×g for 20 minutes at 4°C. […] Quantification was performed using peak area ratios relative to the internal standard and linear regression parameters were calculated from the calibration curve standards prepared in blank mouse plasma (and blank brain). The internal standard used in all of the analyses was N-(4-(4-((thiiran-2-ylmethyl)sulfonyl)phenoxy)phenyl)methanesulfonamide [43], which was analyzed by MRM using the transition 398→261. The chromatographic, MRM conditions, and method validation were the same as previously described [17].

[2] = test system: TBI mouse model (EM impactor CCI); experiment: Brain lesion volume in cresyl violet-stained sections after TBI (stereology, WSI); assay type: in vivo; conditions: TBI mice, 25 mg/kg i.p. for 7 days
Protocol: All animal procedures were performed under the compliance with protocol approval by the University of Missouri Animal Care and Use Committee, which is in accordance with the National Institutes of Health Guide for the Care and Use of Laboratory Animals. The TBI procedure employed an EM impactor for CCI and was conducted as previously described. A total of 86 mice were used in this study. Briefly, 8–10 week-old adult male C57BL/6J mice (The Jackson Laboratory, Bar Harbor, ME) weighing 20–25 g were anesthetized with 2.0% gaseous isoflurane in a nitrogen/oxygen mixture inside a sealed anesthesia chamber. Each mouse was then stably placed on a Kopf stereotaxic apparatus (David Kopf Instruments, Tujunga, CA). Body temperature was monitored with a rectal thermistor probe (TH-10Kmp, Cell MicroControls, Norfolk, VA), and maintained at a constant 37°C on a silicon heating pad (HS-3×2.5 Heater, Cell MicroControls, Norfolk, VA). Following a midline skin incision and removal of connective tissue under sterile conditions, a 5.0 mm diameter craniotomy was performed in the left parietotemporal skull using a pedal-operated high-speed micro-drill mounted on the stereotaxic arm. A 5.0-mm diameter bone disc was then removed to expose the left cortex, while keeping the dura mater intact. A MATLAB-controlled EM impactor (MyNeuroLab Stereotaxic Impactor, St. Louis, MO) with a 3.0-mm diameter tip was centered at 2.7 mm to the left of the midline suture and 3.0 mm rostral to lambda, at an angle of 15° with the vertical. Once the position was set, the EM impactor delivered a CCI with a velocity of 5.0 m/s and dwell time of 100 ms, at a depth of 2.5 mm. This operation produces a moderately severe contusion in the left parietotemporal cortex and the underlying hippocampus as marked by pronounced behavioral deficits, but virtually no mortality. Following impact, the original skull disc was placed back over the exposed cortex, and the incision was sutured. Each mouse was released from anesthesia and placed in an empty cage over a heating pad for recovery. All efforts were made to minimize animal suffering. For sham control mice used in the study, only the craniotomy was performed. […] Mice were observed daily for the duration of the study (7 or 30 days). For design of the 30-day long term study, animals in each group were double-blinded and randomly assigned into two different tissue process procedures after behavioral testing–mouse brains were either fixed and sectioned for histopathological evaluation, or freshly dissected and then frozen at −80°C for later analysis, reflecting the difference of the animal numbers mentioned in the legends of Figures 7 and 8.
At 7 or 30 days after TBI, mice were sacrificed and brains were processed for histochemical staining and assessment of brain lesion volumes using the stereology technique as described, [45]. Briefly, mice were sacrificed at appropriate experimental time points and transcardially perfused with 4% paraformaldehyde in 100 mM phosphate buffer (PB) and brains were dissected. […] Every 5th section was mounted on poly-L-lysine coated glass slides and stained with cresyl violet to quantify brain lesion volumes and examine neuronal cell death.
Systematic evaluation of a large number of histological specimens in an unbiased manner requires high-speed imaging tools for the supervised analysis of pathological assessment to reduce quantitative variations. […]

[3] = test system: TBI mouse model (EM impactor CCI); experiment: Beam-walking test after TBI; assay type: in vivo; conditions: TBI mice, 25 mg/kg i.p. for 7 days
[4] = test system: TBI mouse model (EM impactor CCI); experiment: Barnes maze after TBI; assay type: in vivo; conditions: TBI mice, 25 mg/kg i.p. for 7 days
Protocol: All animal procedures were performed under the compliance with protocol approval by the University of Missouri Animal Care and Use Committee, which is in accordance with the National Institutes of Health Guide for the Care and Use of Laboratory Animals. The TBI procedure employed an EM impactor for CCI and was conducted as previously described. A total of 86 mice were used in this study. Briefly, 8–10 week-old adult male C57BL/6J mice (The Jackson Laboratory, Bar Harbor, ME) weighing 20–25 g were anesthetized with 2.0% gaseous isoflurane in a nitrogen/oxygen mixture inside a sealed anesthesia chamber. Each mouse was then stably placed on a Kopf stereotaxic apparatus (David Kopf Instruments, Tujunga, CA). Body temperature was monitored with a rectal thermistor probe (TH-10Kmp, Cell MicroControls, Norfolk, VA), and maintained at a constant 37°C on a silicon heating pad (HS-3×2.5 Heater, Cell MicroControls, Norfolk, VA). Following a midline skin incision and removal of connective tissue under sterile conditions, a 5.0 mm diameter craniotomy was performed in the left parietotemporal skull using a pedal-operated high-speed micro-drill mounted on the stereotaxic arm. A 5.0-mm diameter bone disc was then removed to expose the left cortex, while keeping the dura mater intact. […]

[5] = mouse, in vivo, ip, 25 mg/kg
Protocol: as §1, §2
(§3) The homogenates were centrifuged twice at 20,000×g for 20 minutes at 4°C. […] Quantification was performed using peak area ratios relative to the internal standard and linear regression parameters were calculated from the calibration curve standards prepared in blank mouse plasma (and blank brain). The internal standard used in all of the analyses was N-(4-(4-((thiiran-2-ylmethyl)sulfonyl)phenoxy)phenyl)methanesulfonamide [43], which was analyzed by MRM using the transition 398→261.
(§4) Pharmacokinetic parameters were calculated as follows. The area under the mean concentration-time curve up to the last quantifiable sampling time (AUC 0–last) was calculated by the trapezoidal rule using the pharmacokinetic software PK Solutions (Version 2.0, Summit Research Services, Montrose, CO). The AUC-time curve from time zero to infinity (AUC 0–∞), representing systemic exposure of a therapeutic agent in the body, was calculated as AUC 0–last+(C last/k), where C last is the concentration at the last quantifiable sampling time and k is the elimination rate constant. Half-lives (t ½α and t ½β) were estimated from the linear segment of the initial or terminal portion of the concentration-time data by linear regression, where the slope of the line was the rate constant k and t ½ = ln 2/k.

[6] = cited from earlier work
[7] = Plasma and brain levels and pharmacokinetics of SB-3CT and p-OH SB-3CT after repeated i.p. SB-3CT (UPLC/ESI-MRM); conditions: mice
Protocol: as §1, §2, §3, §4

[8] = 10 minutes after the last i.p. dose of SB-3CT
[9] = repeated 25 mg/kg i.p. SB-3CT, 20 min after last dose
[10] = repeated 25 mg/kg i.p. SB-3CT, 30 min after last dose
[11] = repeated 25 mg/kg i.p. SB-3CT, 60 min after last dose
[12] = repeated 25 mg/kg i.p. SB-3CT, 90 min after last dose
[13] = repeated 25 mg/kg i.p. SB-3CT, 120 min after last dose

## O=S(=O)(CC1CS1)c1ccc(Oc2ccccc2)cc1 (stereo not shown) [SB-3CT]
[1]; 10 minutes after the last i.p. dose of SB-3CT (25 mg/kg at 0, 2, 24 h)
  Conc, whole brain: 3.7±0.5 pmole/mg tissue
[1]; [8]
  Conc, brain stem: 2.8±0.8 pmole/mg tissue
  Conc, cerebellum: 2.4±0.4 pmole/mg tissue
  Conc, cortex: 2.7±0.8 pmole/mg tissue
  Conc, hippocampus: 3.1±0.8 pmole/mg tissue
  Conc, plasma: 6200 ± 100 nM
  Conc, striatum: 3.5±1.1 pmole/mg tissue
[2]; 7 days post-trauma
  Reduction in brain damage (cortical lesion volume) vs vehicle: ~14%
[2]; 30 days post-trauma
  Cortical lesion volume: 15.60±1.26 mm^3
  Cortical lesion volume smaller than vehicle: approximately 24%
  Hippocampal lesion volume: 4.91±0.40 mm^3
  Hippocampal lesion volume smaller than vehicle: approximately 26%
[3]; day 7 after TBI
  Reduction of motor deficits (beam-walking foot faults) vs vehicle: more than 50%
[3]; day 14 after TBI
  Motor function recovery (beam-walking): almost-complete recovery
[4]; 5-day task started 18 days post-trauma
  Barnes maze latency AUC over 10 trials (memory acquisition) vs vehicle: ameliorated cognitive deficits
[4]; last two days of the trials (days 22 and 23 after TBI)
  Barnes maze latency and error numbers vs vehicle: significantly attenuated
[5]
  AUC 0–last, brain: 86.1 pmol·min/mg
  AUC 0–last, plasma: 130 µM·min
  AUC 0–∞, brain: 87.8 pmol·min/mg
  AUC 0–∞, plasma: 134 µM·min
  t ½β (elimination half-life), brain: 53 min
  t ½β (elimination half-life), plasma: 25 min
[6]; following a single dose of SB-3CT
  Brain AUC 0–∞: 122 pmol·min/mg
[6]; mouse, in vivo
  Elimination half-life: 46 min
[7]; assuming a density of 1 g/mL, repeated 25 mg/kg i.p. SB-3CT
  Brain AUC 0–∞, equivalent: 87.8 µM·min
[7]; repeated 25 mg/kg i.p. SB-3CT
  t ½α, brain: 8.7 min
  t ½α, plasma: 6.6 min
[7]; repeated 25 mg/kg i.p. SB-3CT (0, 2, 24 h), 10 min after last dose
  Brain concentration: 3.7±0.5 pmole/mg tissue
[7]; repeated 25 mg/kg i.p. SB-3CT, 10 min after last dose
  Plasma concentration: 6200 ± 100 nM
[7]; [9]
  Brain concentration: 1.6±0.3 pmole/mg tissue
  Plasma concentration: 2900 ± 300 nM
[7]; [10]
  Brain concentration: 0.99±0.09 pmole/mg tissue
  Plasma concentration: 760 ± 260 nM
[7]; [11]
  Brain concentration: 0.19±0.05 pmole/mg tissue
  Plasma concentration: 550 ± 80 nM
[7]; [12]
  Brain concentration: 0.16±0.08 pmole/mg tissue
  Plasma concentration: 220 ± 130 nM
[7]; [13]
  Brain concentration: 0.049±0.013 pmole/mg tissue
  Plasma concentration: 100 ± 40 nM
[7]; repeated 25 mg/kg i.p. SB-3CT, 180 min after last dose
  Brain concentration: 0.022±0.005 pmole/mg tissue
